{"source": "patent US20230277560A1", "about": "“USE OF C[…] THE TREATMENT OF SEIZURES ASSOCIATED WITH CHRNA4 MUTATION” (GW Research Limited, priority 2020, published 2023)", "tested_on": "seizures associated with CHRNA4 mutation", "test": "Open label, expanded-access program: seizure frequency in a patient with CHRNA4 mutation", "assay_type": "in vivo, human", "settings": "for Seizure frequency, Absence: baseline 0.0; for Seizure frequency, Absence / Seizure frequency, Tonic-clonic / Seizure frequency, Atonic / Seizure frequency, Myoclonic: concomitant rufinamide; for Seizure frequency, Tonic-clonic: baseline 0.4; for Seizure frequency, Atonic / Seizure frequency, Myoclonic: baseline 2800.0", "experimental": "The subject was required to be on one or more AEDs at stable doses for a minimum of two weeks prior to baseline and to have stable vagus nerve stimulation (VNS) settings and ketogenic diet ratios for a minimum of four weeks prior to baseline.\nThe patient was administered botanically derived purified CBD in a 100 mg/mL sesame oil-based solution. Dose was increased to a goal of 25 mg/kg/day.\nA maximum dose of 50 mg/kg/day could be utilised for the patient if they were tolerating the medication but had not achieved seizure control; the patient had further weekly titration by 5 mg/kg/day.\nThere was one patient in this study, and they received CBD for 24 weeks. Modifications were made to concomitant AEDs as per clinical indication.\nSeizure frequency, intensity, and duration were recorded by caregivers in a diary during a baseline period of at least 28 days. Changes in seizure frequency relative to baseline were calculated after at least 2 weeks and at defined timepoints of treatment.\nPatients may be defined as responders if they had more than 50% reduction in seizure frequency compared to baseline. The percent change in seizure frequency was calculated as follows: […]\nThe percent change of seizure frequency may be calculated for any time interval where seizure number has been recorded. For the purpose of this example the percent change of seizure frequency for the end of the treatment period was calculated as follows: […]", "key": {"[1]": {"settings": "Patient 1, 4 weeks, CBD 15.0 mg/kg/day"}, "[2]": {"settings": "Patient 1, 8 weeks, CBD 25.0 mg/kg/day"}, "[3]": {"settings": "Patient 1, 12 weeks, CBD 25.0 mg/kg/day"}, "[4]": {"settings": "Patient 1, 16 weeks, CBD 25.0 mg/kg/day"}, "[5]": {"settings": "Patient 1, 24 weeks, CBD 23.8 mg/kg/day"}, "[6]": {"settings": "Patient 1, treated for 24 weeks, relative to baseline"}}, "data": [{"smiles": "C=C(C)[C@@H]1CCC(C)=C[C@H]1c1c(O)cc(CCCCC)cc1O", "note": "[CBD, cannabidiol]", "values": [{"measurement": "Seizure frequency, Absence", "setting": "[1]", "result": 0.0}, {"measurement": "Seizure frequency, Tonic-clonic", "setting": "[1]", "result": 1.0}, {"measurement": "Seizure frequency, Atonic", "setting": "[1]", "result": 2800.0}, {"measurement": "Seizure frequency, Myoclonic", "setting": "[1]", "result": 2800.0}, {"measurement": "Seizure frequency, Absence", "setting": "[2]", "result": 0.0}, {"measurement": "Seizure frequency, Tonic-clonic", "setting": "[2]", "result": 0.0}, {"measurement": "Seizure frequency, Atonic", "setting": "[2]", "result": 2800.0}, {"measurement": "Seizure frequency, Myoclonic", "setting": "[2]", "result": 2800.0}, {"measurement": "Seizure frequency, Absence", "setting": "[3]", "result": 0.0}, {"measurement": "Seizure frequency, Tonic-clonic", "setting": "[3]", "result": 1.0}, {"measurement": "Seizure frequency, Atonic", "setting": "[3]", "result": 2561.0}, {"measurement": "Seizure frequency, Myoclonic", "setting": "[3]", "result": 2560.0}, {"measurement": "Seizure frequency, Absence", "setting": "[4]", "result": 84.0}, {"measurement": "Seizure frequency, Tonic-clonic", "setting": "[4]", "result": 3.0}, {"measurement": "Seizure frequency, Atonic", "setting": "[4]", "result": 1260.0}, {"measurement": "Seizure frequency, Myoclonic", "setting": "[4]", "result": 840.0}, {"measurement": "frequency of atonic and myoclonic seizures (overall statement)", "setting": "Patient 1, 24 weeks treatment", "result": "effective in reducing the frequency"}, {"measurement": "Seizure frequency, Absence", "setting": "[5]", "result": 140.0}, {"measurement": "Seizure frequency, Tonic-clonic", "setting": "[5]", "result": 18.7}, {"measurement": "Seizure frequency, Atonic", "setting": "[5]", "result": 840.0}, {"measurement": "Seizure frequency, Myoclonic", "setting": "[5]", "result": 840.0}, {"measurement": "reduction in atonic seizures over the treatment period", "setting": "[6]", "result": 70, "unit": "%"}, {"measurement": "reduction in myoclonic seizures over the treatment period", "setting": "[6]", "result": 70, "unit": "%"}, {"measurement": "number of seizures associated with CHRNA4 mutation (conclusion)", "setting": "one patient, 24 weeks treatment", "result": "significantly reduce"}, {"measurement": "tonic-clonic, atonic, myoclonic and absence seizures (summary statement)", "setting": "open label, expanded-access program, patients with CHRNA4 mutation", "result": "significant reduction"}]}]}
